# Results as given in patent US6544541B1, “Devices and compounds for treating arterial restenosis” (Cardiovascular Solutions, Inc., priority 1999, dated 2003).
# Tests used:
# H4IIE cells = experiment: lactate dehydrogenase (LDH) release toxicity assay; format: cell-based; details: 96 hours; FIG. 5
# Protocol: To address the issue of MIBG toxicity, lactate dehydrogenase (LDH) release was measured after incubation with MIBG or MIBA. Quiescent H4IIE cells were prepared in 96-well dishes and treated with various concentrations of either MIBG or MIBA for 96 hours. To quantify the release of LDH from the cells, which only occurs if the cells are damaged or killed by the treatment, 100 μl of culture medium was transferred to a fresh dish. To this was added 100 μl of dye/catalyst mixture (Boehringer Mannheim cytotoxicity detection kitTM), and the samples were subsequently incubated for 30 minutes at 37° C. Absorbance of the solution was monitored at 490 nm. The colour intensity indicates the relative LDH content in the test samples. […] As a consequence, it is speculated that changes in LDH release may be coupled to non-toxic and reversible alterations in mitochondrial metabolism or membrane integrity as a result of MIBG treatment.
# H4IIE hepatoma cells [1] = experiment: DNA synthesis (3H-thymidine incorporation) in H4IIE cells; format: cell-based; details: H4IIE cells
# Protocol: Incorporation of uridine or thymidine was used to define the change in rate of […] synthesis, respectively, in response to a mitogen such as insulin. Specifically, quiescent H4IIE cells were prepared by placing the cultures (in 24-well dishes) into serum-free a-minimal essential medium for 3 days. It is of note that the normal growth media for H4IIE cells is α-MEM containing 10% fetal bovine serum (FBS). After reaching quiescence, the cells were stimulated with 1 μM insulin and incubated for either 6 hours or 24 hours in the presence of 1 μCi/ml ^3H-uridine or ^3H-thymidine, respectively. Cells were subsequently lysed with detergent and the nucleic acids precipitated with 5% trichloroacetic acid. The precipitated material was collected on glass fibre filters and the radioactive content measured by scintillation counting. […] Furthermore, while complete inhibition of DNA synthesis by MIBG is obtained at approximately 20 μM, higher concentrations decrease basal DNA synthesis below control levels.
# H4IIE hepatoma cells [2] = experiment: flow cytometry, bromodeoxyuridine incorporation in proliferating cells; format: cell-based; details: 25 μM MIBG, 48 hours; FIG. 4
# Protocol: Additional verification that MIBG blocked cell proliferation was obtained using flow cytometry analysis. Proliferating H4IIE cells (<40% confluent) were incubated for 48 hours in the presence or absence (untreated control or containing MIBA) of 25 μM MIBG. The cells were pulse labeled with bromodeoxyuridine (BrdU) 2 hours before harvest to label replicating DNA. Cells were released by trypsinization, collected by centrifugation and permeabilized with Triton X-100 (1%). Replicated DNA was labeled with an anti-BrdU antibody conjugated to FITC (fluorescein isothiocyanate), while total DNA was labeled with propidium iodide. The FITC and propidium iodide labels were detected at 514 nm and 600 nm, respectively, with a Coulter flow cytometer™ (excitation wavelength 488 nm), and number of cells containing these fluors were quantified. The data were plotted as cells with propidium iodide versus cells with BrdU. […] To summarize, the results described above indicate that MIBG is a potent inhibitor of cell proliferation. Furthermore, the cellular process affected by MIBG is active throughout the cell cycle. This conclusion is based on the fact that there is no accumulation of cells at a specific phase of the cell cycle. In addition, it is of note that there is no apparent decrease in cell number or an increase in smaller cells, both characteristics of cell death.
# [3] = human studies; cited from earlier work
# [4] = test system: smooth muscle cells derived from human arterial conduits; experiment: DNA synthesis and cytotoxicity in human smooth muscle cells; details: human cells; FIG. 26B
# [5] = test system: porcine coronary artery smooth muscle cells
# [6] = test system: porcine coronary arteries; experiment: coronary artery organ culture after balloon angioplasty (neointimal index); details: organ culture, relative to MIBG; FIG. 24
# Source text: Although smooth muscle cell cultures can be used to determine the ability of a compound to inhibit proliferation, these cells are not good indicators of a compound's ability to prevent restenosis. This statement stems from the fact that several processes, including cell migration, proliferation and synthesis of ECM degrading enzymes, must be coordinately activated in order for restenosis to occur. A novel organ culture system has therefore been developed in order to test the effectiveness of MIBG and other compounds at preventing restenosis (Wilson et al, 1999, Cardiac Res 42: 761-772). In brief, hearts are transported from the abattoir to the laboratory on ice. The left descending coronary artery is exposed and a balloon catheter is inserted past the first bifurcation. The balloon is inflated, and after 1 minute is deflated and withdrawn. The damaged region (approximately 20 mm in length) is excised, cut into 4 pieces of 5 mm and each piece is placed into an individual well of a culture dish. These segments can be maintained in media containing 20% serum for up to 21 days. Upon harvest of the tissue, typically after 14 days, the vessel segments are placed into resin for histological analysis. Sections are prepared from vessel segments after removal of the first 1.5 mm. […] This file is imported into SigmaScan™, and staining in the areas of the intimal and medial layers quantified. […]
# smooth muscle cells = experiment: Boyden chamber smooth muscle cell migration in response to Angiotensin II; format: cell-based; details: 20 μM; 10 μM Angiotensin II in lower compartment; FIG. 17
# Protocol: Specifically, smooth muscle cells were seeded into the upper chamber of a Boyden chamber, which consists of two compartments that are separated by a permeable membrane. […] Specifically, migration to the lower compartment was determined by counting cells on the underside of the membrane. Data are presented as means ± standard error for six independent determinations.
# porcine femoral artery = experiment: balloon angioplasty of the porcine femoral artery in vivo; set-up: species or system pigs; details: in vivo femoral angioplasty, relative to MIBG; FIG. 25
# Source text: To test the effectiveness of MIBG under in vivo conditions, this compound was applied to the femoral artery after balloon angioplasty. This model provided a means of testing both MIBG and the method of application. Specifically, male castrated farm pigs (25-30 kg) were anaesthetized and maintained on isoflurane throughout the procedure. With the pig in a supine position, the left femoral artery was exposed from the bifurcation of the femoral and superficial femoral arteries to the point of insertion of the femoral artery into the groin. A mixture of nitroglycerin and papaverine was applied to the vessel and the area was covered with a saline-soaked sponge to keep the tissues moist. The right femoral artery was also exposed, treated and covered with a sponge. The left femoral was then clamped at both groin insertion (proximal) and bifurcation (distal) points, and an arteriotomy made at the bifurcation. The balloon (6.0×20 mm) was inserted through the arteriotomy in a retrograde manner (i.e. toward the groin) to a position 20 mm from the arteriotomy and the proximal clamp removed. The balloon was inflated for 1 minute, deflated and carefully removed, and the arteriotomy was closed with 6.0 ProleneTM suture. MIBG in combination with a biocompatible glue, in this example, Tisseel®, was applied to the surface of the vessel extending from the arteriotomy to the proximal region past the site of balloon inflation. The fibrin glue ensured that MIBG slowly diffused into the vessel. Furthermore, the fibrin glue helps to retain MIBG at the site for several days. The right femoral was handled as described above. […] The extent of restenosis was subsequently monitored by morphometry. […] Digital images were captured with a DAGE-MTI CCD camera and analyzed with SigmaScan Software. The neointimal and medial areas are quantified and used to calculate the neointimal index: neointimal area/medial area. […] Even though the vehicle cannot be detected after 14 days, we conclude that it remains for the minimum period necessary.
# cell growth = details: cited from earlier work
# [7] = test system: Friend erythroleukemia cells; experiment: Friend cell differentiation; format: cell-based
# Source text: It is of note however that MIBG acts at a point in the differentiation pathway that is distinct from 3-aminobenzamide.
compound,measurement,setting,value
"NCc1cccc(I)c1 [MIBA, meta-iodobenzylamine]",concentration at which increased LDH release is detectable,H4IIE cells,≥ 200 µM
same,inhibition of DNA synthesis (thymidine incorporation),H4IIE hepatoma cells [1],does not inhibit DNA synthesis
same,bromodeoxyuridine incorporation (DNA synthesis),H4IIE hepatoma cells [2],identical to those observed in the control cells
"CC(C=NNC(=N)N)=NNC(=N)N [methylGAG, methylglyoxal bis-(guanylhydrazone)]",effectiveness in preventing cell growth,H4IIE hepatoma cells [1]; relative to MIBG,as effective as MIBG
same,threshold of tolerance relative to MIBG,[3],higher threshold of tolerance
same,toxicity relative to MIBG,[4],less toxicity
same,"inhibition of thymidine incorporation, potency relative to MIBG",[5],slightly more potent inhibitor than MIBG
same,toxicity relative to MIBG,[5],less toxicity
same,effectiveness in preventing cell growth,"[5]; smooth muscle cells, relative to MIBG",as effective as MIBG
same,effectiveness in preventing neointimal formation,[6],as effective as MIBG
same,smooth muscle cell migration,smooth muscle cells,inhibited smooth muscle cell migration
same,effectiveness in preventing neointimal formation,porcine femoral artery,as effective as MIBG
N=C(N)NCCCCN [agmatine],inhibition of DNA synthesis in response to serum treatment,[5],does not inhibit DNA synthesis
NC(=O)c1cccc(N)c1 [3-aminobenzamide],concentrations at which cell growth is inhibited,cell growth,≥ 1 mM
same,effect on Friend cell differentiation,[7],inhibits the commitment phase
benzylguanidine [BG],inhibition of DNA synthesis (thymidine incorporation),H4IIE hepatoma cells [1],did not inhibit thymidine incorporation
same,inhibition of thymidine incorporation,[5],did not inhibit thymidine incorporation
